Data published in patent publication US7795305B2, “CDDO-compounds and combination therapies thereof” (Board of Regents, The University of Texas System, priority 2000, dated 2010).
pIC50: −log10 of the molar value.

What was measured:
HL-60 cells [1] = assay: Viable cell count of leukemic cells in suspension culture (Trypan blue); assay type: cell-based, human; conditions: read-out: concentration required for 50% inhibition of HL-60 cells; PPARγ ligands compared to CDDO
Description: Suspension culture of leukemic cells. Leukemic cell lines were cultured at a density of 3.0×10^5 cells/mL, and AML mononuclear cells at 5×10^5 cells/mL in the presence or absence of indicated concentrations of CDDO-Me. Appropriate amounts of DMSO (final concentration<0.05%) was included as a control. For cytotoxicity studies, 1 μM ara-C was added to the cultures.
CDDO. […] The percentage of proliferating cells were analyzed by FCM.
CDDO-Me. […] Mechanism of growth inhibition was analyzed on cell cycle and apoptosis in HL-60 cells.

HL-60 cells [2] = assay: Differentiation by CD11b/CD14 flow cytometry; assay type: cell-based, human; conditions: 7 days, concentration 1 (column head M)
Description: Immunophenotyping. The PE-conjugated anti-CD11b, FITC-conjugated anti-CD14 monoclonal antibody (mAb) (Becton Dickinson) and PE-conjugated anti-CD95 mAb (PharMingen) were used at a 1/10 dilution.
Enhancement in cellular differentiation using combinations of CDDO with ATRA were tested. […] Cell differentiation was analyzed by flow cytometry (CD14/CD11b staining). […] These experiments were repeated. […]
Finally, the inventors examined if CDDO-Me combined with ATRA would enhance differentiation. […] […] Next, combined treatment with CDDO-Me and RXR-specific ligand were tested for potentiation of anti-leukemic effects.

D9 cells, vector control = assay: Annexin V / cell number in D9 vector control cells; assay type: cell-based; conditions: 3 μM (CDDO: 5 hrs)
Description: (§1) Annexin V staining. Cells were washed in phosphate-buffered saline (PBS) and resuspended in 100 μl of binding buffer containing Annexin V (Roche Diagnostic Corporation, Indianapolis, Ind.). Cells were analyzed by flow cytometry after the addition of propidium iodide (PI). Annexin V binds to those cells that express phosphatidylserine on the outer layer of the cell membrane, and PI stains the cellular DNA of those cells with a compromised cell membrane. This allows for live cells (unstained with either fluorochrome) to be discriminated from apoptotic cells (stained only with annexin V) and necrotic cells (stained with both annexin and PI).
(§2) To characterize the correlation between PPARγ and caspase activation, caspase-3 levels in D9 cells transfected with wt-PPARγ were analyzed. Six different single cell-derived clones were treated with 3 μM CDDO or vehicle controls for 5 hrs. Caspase-3 cleavage was analyzed by Western blot. A decrease in pro-caspase-3 with appearance of the cleaved product was readily observed in all clones. The degree of cleavage was higher in PPARγ-transfected than in vector control cells that express endogenous PPARγ. […] These changes correlated with plasma membrane changes: vector control=47.0% annexin V-positive cells; wt-PPARγ-transfected cells=73.3±1.1% annexin V (+), n=6. […] PPARγ-transfected cells were also more sensitive to PPARγ-ligand 15d-PGJ2 (41.00% vs 16.0% annexin (+) cells at 3 μM).
To characterize the correlation between PPARγ and caspase activation, caspase-3 levels in D9 cells transfected with wt-PPARγ were analyzed. Six different single cell-derived clones were treated with 3 μM CDDO or vehicle controls for 5 hrs. Caspase-3 cleavage was analyzed by Western blot. A decrease in pro-caspase-3 with appearance of the cleaved product was readily observed in all clones. The degree of cleavage was higher in PPARγ-transfected than in vector control cells that express endogenous PPARγ. […] These changes correlated with plasma membrane changes: vector control=47.0% annexin V-positive cells; wt-PPARγ-transfected cells=73.3±1.1% annexin V (+), n=6. […]

[3] = test system: wt-PPARγ-transfected D9 cells; assay: Annexin V / cell number in wt-PPARγ-transfected D9 cells; assay type: cell-based; conditions: 3 μM (CDDO: 5 hrs, n=6)
Description: as §1, §2
as §2, with “(41.0%” for “(41.00%”
The sensitivity of leukemic cells that overexpress PPARγ to CDDO-induced killing was tested. Vector control (pcDNA) or wt-PPARγ-transfected D9 cells (2 different clones) were treated 0.2 μM of CDDO for 48 hrs. Cell viability was assessed by cell count after Trypan blue exclusion, and apoptosis determined by PS/annexin V/Propidium Iodide (PI) flow cytometry. Leukemic cells transfected with PPARγ expressed 2.8-3.7-fold higher amounts of protein compared with vector controls. […] Importantly, CDDO increased PPARγ expression in both, vector control and transfected cells. […]

primary AML samples = assay: Annexin V staining of primary AML samples exposed to PPARγ ligands; assay type: cell-based, human; conditions: 72 hrs; 15d-PGJ2 5 μM; BRL49653, L-805645, GW347845X 25 μM
Description: as §1

leukemic cell lines = assay: Proliferation of leukemic cell lines (cell count and 3H incorporation); assay type: cell-based; conditions: read-out: IC50, proliferation of leukemic cells
HL-60 cells [4] = conditions: 15d-PGJ2 at 3 μM, BRL49653 at 5 μM (Tontonoz et al., 1998); cited from earlier work
HL-60 cells [5] = conditions: 15d-PGJ2 at 3 μM, BRL49653 at 5 μM (Tontonoz et al., 1998); cited from earlier work; remark: listed apart in the source
HL-60 cells [6] = assay: Differentiation by CD11b/CD14 flow cytometry; assay type: cell-based, human; conditions: 7 days
melanoma xenografts = conditions: oral 10-30 mg/kg daily for 3 wk or 10 mg/kg injected in the tumor; cited from earlier work

Compound | pIC50 (HL-60 cells [1]) | CD11b % (HL-60 cells [2]) [%] | annexin V-positive cells (D9 cells, vector control) [%] | annexin V (+) cells [3] [%] | annexin-V-positive cells (primary AML samples) [%] | pIC50 (leukemic cell lines) | killing of HL-60 cells (HL-60 cells [4]) | monocytic differentiation of HL-60 cells (HL-60 cells [5]) | CD11b % (HL-60 cells [6]; 10 μM (15d-PGJ2 column head prints M)) [%] | CD11b % (HL-60 cells [6]; concentration 3 (column head M)) [%] | CD11b % (HL-60 cells [6]; concentration 5 (column head M)) [%] | growth of melanoma xenografts in vivo (melanoma xenografts)
CCCCC/C=C/C=C1/C(=O)C=C[C@@H]1C/C=C\CCCC(=O)O [15d-PGJ2, 15-deoxyΔ^12,14PGJ2] | 5.30 | 34.1 | 16.0 | 41.0 | 27.7 | 5.00 to 5.30 | no killing | induce monocytic differentiation | 88.9 | 49.4 | 83.9 | –
O=C(O)c1ccc2cc(-c3ccc(O)c(C45CC6CC(CC(C6)C4)C5)c3)ccc2c1 [CD437] | – | – | – | – | – | – | – | – | – | – | – | caused growth inhibition of melanoma xenografts
